Experiments:
[1] = target: PRMT5/MEP50 complex (Homo sapiens, UniProt O14744); test: Inhibition of recombinant human N-terminal FLAG-tagged PRMT5 (2 to end residues)/human N-terminal His-tagged MEP50 (2 to end residues) expressed in HEK293F cells using H4 peptide as substrate preincubated for 15 mins followed by substrate and [3H]SAM addition and measured after 1 hr by scintillation counting method
[2] = tested on: MV4-11; test: Antiproliferative activity against human MV4-11 cells supplemented with fresh medium containing compound every 4 days measured on day 8 by Celltiter-glo luminescent cell viability assay; assay type: functional
[3] = tested on: MV4-11; test: Antiproliferative activity against human MV4-11 cells supplemented with fresh medium containing compound every 4 days measured on day 12 by Celltiter-glo luminescent cell viability assay; assay type: functional
[4] = Cmax in Sprague-Dawley rat at 10 mg/kg, po administered via gavage by LC-MS/MS analysis; assay type: ADME, organism-based; set-up: dose 10 mg/kg, route oral; conditions: in vivo
[5] = Tmax in Sprague-Dawley rat at 10 mg/kg, po administered via gavage by LC-MS/MS analysis; assay type: ADME, organism-based; conditions: in vivo
[6] = Elimination half life in Sprague-Dawley rat at 10 mg/kg, po administered via gavage by LC-MS/MS analysis; assay type: ADME, organism-based; conditions: in vivo, read-out: beta t1/2 (converted)
[7] = AUC in Sprague-Dawley rat at 10 mg/kg, po administered via gavage by LC-MS/MS analysis; assay type: ADME, organism-based; conditions: in vivo
[8] = target: Protein arginine N-methyltransferase 5 (Homo sapiens) (UniProt O14744); test: Inhibition of PRMT5 in human MV411 cells assessed as reduction in SmD3 methylation after 4 days by Western blot analysis; assay type: cell-based
Sequence of Protein arginine N-methyltransferase 5 (Homo sapiens) (O14744 whole entry): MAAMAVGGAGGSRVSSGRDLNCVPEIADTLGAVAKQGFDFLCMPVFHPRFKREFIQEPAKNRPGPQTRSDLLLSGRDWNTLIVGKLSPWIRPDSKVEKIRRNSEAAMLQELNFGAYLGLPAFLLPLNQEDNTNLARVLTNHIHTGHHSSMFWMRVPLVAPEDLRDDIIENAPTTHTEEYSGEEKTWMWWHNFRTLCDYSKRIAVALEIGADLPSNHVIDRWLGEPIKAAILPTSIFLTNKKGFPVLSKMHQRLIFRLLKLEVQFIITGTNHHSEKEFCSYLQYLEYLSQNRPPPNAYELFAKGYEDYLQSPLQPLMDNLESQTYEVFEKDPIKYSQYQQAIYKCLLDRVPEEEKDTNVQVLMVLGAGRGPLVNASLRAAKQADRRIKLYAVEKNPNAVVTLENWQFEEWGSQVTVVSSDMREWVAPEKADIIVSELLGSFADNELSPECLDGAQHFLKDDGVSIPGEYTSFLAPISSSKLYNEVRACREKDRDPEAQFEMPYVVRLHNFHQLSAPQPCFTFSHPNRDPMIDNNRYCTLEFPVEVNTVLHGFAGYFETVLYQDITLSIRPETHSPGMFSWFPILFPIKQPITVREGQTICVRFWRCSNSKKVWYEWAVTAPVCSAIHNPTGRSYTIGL

Sequence of PRMT5/MEP50 complex (O14744 whole entry): as above
Sequence of PRMT5/MEP50 complex (Q9BQA1 whole entry, further chain): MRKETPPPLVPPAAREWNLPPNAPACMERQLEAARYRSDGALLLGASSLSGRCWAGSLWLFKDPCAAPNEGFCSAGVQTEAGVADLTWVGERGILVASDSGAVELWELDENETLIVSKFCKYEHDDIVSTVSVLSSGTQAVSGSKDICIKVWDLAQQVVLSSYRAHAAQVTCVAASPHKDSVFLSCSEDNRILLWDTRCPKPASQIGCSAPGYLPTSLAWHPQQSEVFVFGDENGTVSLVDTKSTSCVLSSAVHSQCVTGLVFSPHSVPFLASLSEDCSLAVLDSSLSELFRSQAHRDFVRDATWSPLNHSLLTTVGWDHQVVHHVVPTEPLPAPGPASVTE

SMILES | IC50 [1] | GI50 [2] | GI50 [3] | also measured
CN1CCc2sc(C(=O)NCC(O)CN3CCc4ccccc4C3)cc2C1 (stereo unspecified) | 475 nM | – | – | –
CN1CCc2sc(C(=O)NCC(O)CN3CCc4ccccc4C3)nc2C1 (stereo unspecified) | 1200 nM | – | – | –
O=C(NCC(O)CN1CCc2ccccc2C1)c1cc2c(s1)CCN(C(=O)c1ccncc1)C2 (stereo unspecified) | 45 nM | 253 nM | 110 nM | –
COc1ccc(C(=O)N2CCc3cc(C(=O)NCC(O)CN4CCc5ccccc5C4)ccc3C2)cc1 (stereo unspecified) | 23 nM | 35 nM | 32 nM | –
O=C(NCC(O)CN1CCc2ccccc2C1)c1cc2c(s1)CCN(C(=O)c1cccs1)C2 (stereo unspecified) | 37 nM | 324 nM | 168 nM | –
O=C(NCC(O)CN1CCc2ccccc2C1)c1cc2c(s1)CCN(C(=O)Oc1ccccc1)C2 (stereo unspecified) | 50 nM | – | – | –
O=C(NCC(O)CN1CCc2ccccc2C1)c1cc2c(s1)CCN(C(=O)c1ccc([N+](=O)[O-])cc1)C2 (stereo unspecified) | 19 nM | 201 nM | 141 nM | –
O=C(NCC(O)CN1CCc2ccccc2C1)c1cc2c(s1)CCN(S(=O)(=O)c1ccccc1)C2 (stereo unspecified) | 91 nM | 375 nM | 209 nM | –
CN(C)c1ccc(C(=O)N2Cc3ccc(C(=O)NCC(O)CN4CCc5ccccc5C4)cc3C2)cc1 (stereo unspecified) | 17 nM | 128 nM | 92 nM | –
O=C(NCC(O)CN1CCc2ccccc2C1)c1cc2c(s1)CCN(C(=O)c1cccc(F)c1)C2 (stereo unspecified) | 31.5 nM | 314 nM | 166 nM | –
O=C(NCC(O)CN1CCc2ccccc2C1)c1cc2c(s1)CCN(C(=O)Cc1ccccc1)C2 (stereo unspecified) | 50 nM | 256 nM | 147 nM | –
O=C(NCC(O)CN1CCc2ccccc2C1)c1cc2c(s1)CCN(c1ccccc1)C2 (stereo unspecified) | 260 nM | – | – | –
O=C(NCC(O)CN1CCc2ccccc2C1)c1cc2c(s1)CCN(C(=O)CCc1ccccc1)C2 (stereo unspecified) | 47 nM | 304 nM | 185 nM | –
O=C(NC[C@H](O)CN1CCc2ccccc2C1)c1cc(NC2COC2)ncn1 | – | 212 nM | 106 nM | –
O=C(NCC(O)CN1CCc2ccccc2C1)c1ccc2c(c1)CCN(C(=O)c1ccc(Br)cc1)C2 (stereo unspecified) | 11 nM | 45 nM | 34 nM | –
O=C(NCC(O)CN1CCc2ccccc2C1)c1cc2c(s1)CCN(C(=O)c1ccc(F)cc1)C2 (stereo unspecified) | 30 nM | 199 nM | 126 nM | –
O=C(NCC(O)CN1CCc2ccccc2C1)c1cc2c(s1)CCN(C(=O)c1ccc3ccccc3c1)C2 (stereo unspecified) | 22 nM | 322 nM | 178 nM | –
CN(C)c1ccc(C(=O)N2CCc3ccc(C(=O)NCC(O)CN4CCc5ccccc5C4)cc3C2)cc1 (stereo unspecified) | 40 nM | – | – | –
O=C(NCC(O)CN1CCc2ccccc2C1)c1cc2c(s1)CCN(C1CCOCC1)C2 (stereo unspecified) | 460 nM | – | – | –
O=C(NCC(O)CN1CCc2ccccc2C1)c1cc2c(s1)CCN(Cc1ccccc1)C2 (stereo unspecified) | 240 nM | – | – | –
O=C(NCC(O)CN1CCc2ccccc2C1)c1cc2c(s1)CCN(C(=O)c1ccc(N3CCC3)cc1)C2 (stereo unspecified) | 44 nM | – | – | –
COc1ccc(C(=O)N2CCc3cc(C(=O)NC[C@H](O)CN4CCc5ccccc5C4)ccc3C2)cc1 | 13 nM | 37 nM | 23 nM | –
CC(=O)c1ccc(C(=O)N2CCc3sc(C(=O)NCC(O)CN4CCc5ccccc5C4)cc3C2)cc1 (stereo unspecified) | 19 nM | 193 nM | 89 nM | –
Cc1c(C(=O)NCC(O)CN2CCc3ccccc3C2)sc2c1CN(C(=O)c1ccc(N(C)C)cc1)CC2 (stereo unspecified) | 23 nM | 169 nM | 101 nM | –

SMILES | IC50 [1] | GI50 [2] | GI50 [3] | also measured
CC(C)(C)c1ccc(C(=O)N2CCc3sc(C(=O)NCC(O)CN4CCc5ccccc5C4)cc3C2)cc1 (stereo unspecified) | 19 nM | 415 nM | 186 nM | –
O=C(NCC(O)CN1CCc2ccccc2C1)c1cc2c(s1)CCN(C(=O)c1ccc(C(F)(F)F)cc1)C2 (stereo unspecified) | 49 nM | 204 nM | 134 nM | –
CN1CCc2oc(C(=O)NCC(O)CN3CCc4ccccc4C3)cc2C1 (stereo unspecified) | 1900 nM | – | – | –
N#Cc1ccc(C(=O)N2CCc3sc(C(=O)NCC(O)CN4CCc5ccccc5C4)cc3C2)cc1 (stereo unspecified) | 25 nM | 258 nM | 135 nM | –
O=C(NCC(O)CN1CCc2ccccc2C1)c1cc2c(s1)CCN(C(=O)c1ccccc1F)C2 (stereo unspecified) | 45 nM | 261 nM | 124 nM | –
CN(C)c1ccc(C(=O)N2CCc3cc(C(=O)NCC(O)CN4CCc5ccccc5C4)ccc3C2)cc1 (stereo unspecified) | 17 nM | 70 nM | 36 nM | –
CN(C)c1ccc(C(=O)N2CCc3cc(C(=O)NC[C@H](O)CN4CCc5ccccc5C4)ccc3C2)cc1 | 11 nM | 75 nM | 53 nM | –
O=C(NCC(O)CN1CCc2ccccc2C1)c1cc2c(s1)CCN(C(=O)c1ccc(Cl)cc1)C2 (stereo unspecified) | 23 nM | 147 nM | 162 nM | –
CN(C)c1ccc(C(=O)N2CCc3sc(C(=O)NCC(O)CN4CCc5ccccc5C4)cc3C2)cc1 (stereo unspecified) | 23 nM | 197 nM | 143 nM | –
O=C(NCC(O)CN1CCc2ccccc2C1)c1cc2c(s1)CCN(C1CCCCC1)C2 (stereo unspecified) | 130 nM | – | – | –
CN(C)c1ccc(C(=O)N2CCc3cc(C(=O)NC[C@H](O)CN4CCc5ccccc5C4)ccc3C2)cc1.Cl | – | – | – | Cmax [4]: 14.3 ng/mL; Tmax [5]: 20 min; half-life [6]: 56.7 min; AUC [7]: 15.8 ng·h/mL
COc1ccc(C(=O)N2CCc3cc(C(=O)NC[C@H](O)CN4CCc5ccccc5C4)ccc3C2)cc1.Cl | – | – | – | Cmax [4]: 102 ng/mL; Tmax [5]: 25 min; half-life [6]: 128 min; AUC [7]: 94.6 ng·h/mL
CN1CCc2[nH]c(C(=O)NCC(O)CN3CCc4ccccc4C3)cc2C1 (stereo unspecified) | 1900 nM | – | – | –
O=C(NCC(O)CN1CCc2ccccc2C1)c1cc2c(s1)CCN(C(=O)c1ccco1)C2 (stereo unspecified) | 25 nM | 239 nM | 160 nM | –
O=C(NCC(O)CN1CCc2ccccc2C1)c1cc2c(s1)CCN(C(=O)c1ccccc1)C2 (stereo unspecified) | 39 nM | 184 nM | 154 nM | –
O=C(NC[C@H](O)CN1CCc2ccccc2C1)c1ccc2c(c1)CCN(C(=O)c1ccc(Br)cc1)C2 | – | – | – | inhibition [8]: Dose-dependent effect
O=C(NC[C@@H](O)CN1CCc2ccccc2C1)c1ccc2c(c1)CCN(C(=O)c1ccc(Br)cc1)C2 | 59 nM | 213 nM | 187 nM | –
COc1ccc(C(=O)N2CCc3sc(C(=O)NCC(O)CN4CCc5ccccc5C4)cc3C2)cc1 (stereo unspecified) | 20 nM | 216 nM | 85.6 nM | –
CCCN1CCc2sc(C(=O)NCC(O)CN3CCc4ccccc4C3)cc2C1 (stereo unspecified) | 1100 nM | – | – | –
O=C(NCC(O)CN1CCc2ccccc2C1)c1cc2c(s1)CCN(C(=O)c1ccc(Br)cc1)C2 (stereo unspecified) | 18 nM | 181 nM | 66 nM | –
COc1ccc(C(=O)N2CCc3cc(C(=O)NC[C@@H](O)CN4CCc5ccccc5C4)ccc3C2)cc1 | 33 nM | 333 nM | 213 nM | –
CC(c1ccccc1)N1CCc2sc(C(=O)NCC(O)CN3CCc4ccccc4C3)cc2C1 (stereo unspecified) | 60 nM | 436 nM | 172 nM | –
Cc1ccc(C(=O)N2CCc3sc(C(=O)NCC(O)CN4CCc5ccccc5C4)cc3C2)cc1 (stereo unspecified) | 32.5 nM | 135 nM | 110 nM | –
